Results as given in PubChem BioAssay (NCI).
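Five concentrations, 48 hours, 96-well plates. Definition used: TGI = concentration required for complete inhibition of growth.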

Experiments:
Test in all cases: growth of human tumour cells (NCI), 48 h
786-0 renal = tested on: 786-0 renal
A549 NSCLC = tested on: A549 NSCLC
ACHN renal = tested on: ACHN renal
BT-549 breast = tested on: BT-549 breast
CAKI-1 renal = tested on: CAKI-1 renal
CCRF-CEM leukemia = tested on: CCRF-CEM leukemia
COLO 205 colon = tested on: COLO 205 colon
DU-145 prostate = tested on: DU-145 prostate
EKVX NSCLC = tested on: EKVX NSCLC
HCC-2998 colon = tested on: HCC-2998 colon
HCT-116 colon = tested on: HCT-116 colon
HCT-15 colon = tested on: HCT-15 colon
HL-60(TB) leukemia = tested on: HL-60(TB) leukemia
HOP-62 NSCLC = tested on: HOP-62 NSCLC
HOP-92 NSCLC = tested on: HOP-92 NSCLC
HS 578T breast = tested on: HS 578T breast
HT29 colon = tested on: HT29 colon
IGROV1 ovarian = tested on: IGROV1 ovarian
K-562 leukemia = tested on: K-562 leukemia
KM12 colon = tested on: KM12 colon
LOX IMVI melanoma = tested on: LOX IMVI melanoma
M14 melanoma = tested on: M14 melanoma
MALME-3M melanoma = tested on: MALME-3M melanoma
MCF7 breast = tested on: MCF7 breast
MDA-MB-231 breast = tested on: MDA-MB-231 breast
MDA-MB-435 = tested on: MDA-MB-435
MDA-N = tested on: MDA-N
MOLT-4 leukemia = tested on: MOLT-4 leukemia
NCI-H226 lung = tested on: NCI-H226 lung
NCI-H23 lung = tested on: NCI-H23 lung
NCI-H460 lung = tested on: NCI-H460 lung
NCI-H522 lung = tested on: NCI-H522 lung
NCI/ADR-RES ovarian = tested on: NCI/ADR-RES ovarian
OVCAR-3 ovarian = tested on: OVCAR-3 ovarian
OVCAR-4 ovarian = tested on: OVCAR-4 ovarian
OVCAR-5 ovarian = tested on: OVCAR-5 ovarian
OVCAR-8 ovarian = tested on: OVCAR-8 ovarian
PC-3 prostate = tested on: PC-3 prostate
RPMI-8226 leukemia = tested on: RPMI-8226 leukemia
RXF 393 renal = tested on: RXF 393 renal
SF-268 CNS = tested on: SF-268 CNS
SF-295 CNS = tested on: SF-295 CNS
SF-539 CNS = tested on: SF-539 CNS
SK-MEL-2 melanoma = tested on: SK-MEL-2 melanoma
SK-MEL-28 melanoma = tested on: SK-MEL-28 melanoma
SK-MEL-5 melanoma = tested on: SK-MEL-5 melanoma
SK-OV-3 ovarian = tested on: SK-OV-3 ovarian
SN12C renal = tested on: SN12C renal
SNB-19 CNS = tested on: SNB-19 CNS
SNB-75 CNS = tested on: SNB-75 CNS
SR leukemia = tested on: SR leukemia
SW-620 colon = tested on: SW-620 colon
T-47D breast = tested on: T-47D breast
TK-10 renal = tested on: TK-10 renal
U251 CNS = tested on: U251 CNS
UACC-257 melanoma = tested on: UACC-257 melanoma
UACC-62 melanoma = tested on: UACC-62 melanoma
UO-31 renal = tested on: UO-31 renal
A498 renal = tested on: A498 renal

For Cc1ccc(-c2nc(N/N=C/c3ccc(O)cc3)c3ccccc3n2)cc1, the TGI (786-0 renal) was 71.9 µM, the TGI (A549 NSCLC) was > 100 µM and the TGI (ACHN renal) was 35.7 µM. The TGI (BT-549 breast) was > 100 µM, the TGI (CAKI-1 renal) was 31.8 µM and the TGI (CCRF-CEM leukemia) was > 100 µM. For the same compound, the TGI (COLO 205 colon) was > 100 µM, the TGI (DU-145 prostate) was 75.2 µM and the TGI (EKVX NSCLC) was 37.4 µM. The TGI (HCC-2998 colon) was 30.8 µM, the TGI (HCT-116 colon) was 37.6 µM and the TGI (HCT-15 colon) was > 100 µM. For the same compound, the TGI (HL-60(TB) leukemia) was > 100 µM, the TGI (HOP-62 NSCLC) was > 100 µM and the TGI (HOP-92 NSCLC) was > 100 µM. For the same compound, the TGI (HS 578T breast) was > 100 µM, the TGI (HT29 colon) was > 100 µM and the TGI (IGROV1 ovarian) was > 100 µM. For the same compound, the TGI (K-562 leukemia) was > 100 µM, the TGI (KM12 colon) was 41.4 µM and the TGI (LOX IMVI melanoma) was 36.2 µM. For the same compound, the TGI (M14 melanoma) was 18.9 µM, the TGI (MALME-3M melanoma) was 29.4 µM and the TGI (MCF7 breast) was 26.2 µM. The TGI (MDA-MB-231 breast) was 91.5 µM, the TGI (MDA-MB-435) was 48.2 µM and the TGI (MDA-N) was 23.7 µM. The TGI (MOLT-4 leukemia) was > 100 µM, the TGI (NCI-H226 lung) was > 100 µM and the TGI (NCI-H23 lung) was 33.8 µM. The TGI (NCI-H460 lung) was 50.1 µM, the TGI (NCI-H522 lung) was 30.1 µM and the TGI (NCI/ADR-RES ovarian) was > 100 µM. The TGI (OVCAR-3 ovarian) was > 100 µM, the TGI (OVCAR-4 ovarian) was 16.2 µM and the TGI (OVCAR-5 ovarian) was 61.9 µM. The TGI (OVCAR-8 ovarian) was > 100 µM, the TGI (PC-3 prostate) was 31.7 µM and the TGI (RPMI-8226 leukemia) was > 100 µM. The TGI (RXF 393 renal) was 76 µM, the TGI (SF-268 CNS) was > 100 µM and the TGI (SF-295 CNS) was 89.5 µM. The TGI (SF-539 CNS) was > 100 µM, the TGI (SK-MEL-2 melanoma) was 32.7 µM and the TGI (SK-MEL-28 melanoma) was 81.5 µM. For the same compound, the TGI (SK-MEL-5 melanoma) was 15.4 µM, the TGI (SK-OV-3 ovarian) was > 100 µM and the TGI (SN12C renal) was 25.4 µM. For the same compound, the TGI (SNB-19 CNS) was > 100 µM, the TGI (SNB-75 CNS) was 64 µM and the TGI (SR leukemia) was > 100 µM. For the same compound, the TGI (SW-620 colon) was > 100 µM, the TGI (T-47D breast) was 26 µM and the TGI (TK-10 renal) was 68.5 µM. It also gave a TGI (U251 CNS) of 65.7 µM, a TGI (UACC-257 melanoma) of 15.4 µM and a TGI (UACC-62 melanoma) of 26.4 µM. For the same compound, the TGI (UO-31 renal) was 24.7 µM.

In the case of Cc1cc(S(=O)(=O)Nc2nc3ccccc3nc2-c2ccc(Cl)cc2)c(S)cc1Cl, the TGI (786-0 renal) is reported as 43.5 µM, the TGI (A498 renal) is reported as 30.7 µM and the TGI (A549 NSCLC) is reported as 33.6 µM. The TGI (ACHN renal) was 34.9 µM, the TGI (BT-549 breast) was 50.6 µM and the TGI (CAKI-1 renal) was 36.8 µM. It also gave a TGI (CCRF-CEM leukemia) of 58.1 µM, a TGI (COLO 205 colon) of 30.2 µM and a TGI (DU-145 prostate) of 29.9 µM. The TGI (EKVX NSCLC) was 29.1 µM, the TGI (HCC-2998 colon) was 29.1 µM and the TGI (HCT-116 colon) was 40.5 µM. It also gave a TGI (HCT-15 colon) of 42.2 µM, a TGI (HL-60(TB) leukemia) of 44.1 µM and a TGI (HOP-62 NSCLC) of 46.7 µM. For the same compound, the TGI (HOP-92 NSCLC) was 46.9 µM, the TGI (HS 578T breast) was 73 µM and the TGI (HT29 colon) was 31.4 µM. The TGI (IGROV1 ovarian) was 24.9 µM, the TGI (K-562 leukemia) was 70.6 µM and the TGI (KM12 colon) was 35.4 µM. The TGI (M14 melanoma) was 39.5 µM, the TGI (MALME-3M melanoma) was 41.4 µM and the TGI (MCF7 breast) was 34.1 µM. It also gave a TGI (MDA-MB-231 breast) of 54 µM, a TGI (MDA-MB-435) of 34.5 µM and a TGI (MDA-N) of 35.6 µM. It also gave a TGI (MOLT-4 leukemia) of 42.2 µM, a TGI (NCI-H226 lung) of 47.9 µM and a TGI (NCI-H23 lung) of 33.4 µM. For the same compound, the TGI (NCI-H460 lung) was 29.4 µM, the TGI (NCI-H522 lung) was 28.3 µM and the TGI (NCI/ADR-RES ovarian) was 36.9 µM. It also gave a TGI (OVCAR-3 ovarian) of 29.9 µM, a TGI (OVCAR-4 ovarian) of 28.2 µM and a TGI (OVCAR-5 ovarian) of 33.8 µM. It also gave a TGI (OVCAR-8 ovarian) of 51.6 µM, a TGI (PC-3 prostate) of 34.3 µM and a TGI (RPMI-8226 leukemia) of 68.5 µM. It also gave a TGI (RXF 393 renal) of 46.6 µM, a TGI (SF-268 CNS) of 35.3 µM and a TGI (SF-295 CNS) of 35 µM. The TGI (SF-539 CNS) was 34 µM, the TGI (SK-MEL-2 melanoma) was 29.2 µM and the TGI (SK-MEL-28 melanoma) was 31 µM. For the same compound, the TGI (SK-MEL-5 melanoma) was 27 µM, the TGI (SK-OV-3 ovarian) was 31.1 µM and the TGI (SN12C renal) was 56.7 µM. The TGI (SNB-19 CNS) was 37 µM, the TGI (SR leukemia) was 37.8 µM and the TGI (T-47D breast) was 32.8 µM. It also gave a TGI (TK-10 renal) of 63.7 µM, a TGI (U251 CNS) of 34 µM and a TGI (UACC-257 melanoma) of 44.2 µM. The TGI (UACC-62 melanoma) was 25.4 µM and the TGI (UO-31 renal) was 30.1 µM.
